# Like-named read-outs stand apart in the source and are kept apart here.
# Assays:
# MDA-MB-231/ATCC = experiment: NCI growth inhibition and cytotoxicity screen, Breast Cancer panel; conditions: Homo sapiens; for GI50: MDA-MB-231; for CC50: MDA-MB-231, read-out: LC50
# SF-268 = experiment: NCI growth inhibition and cytotoxicity screen, CNS Cancer panel; conditions: Homo sapiens; for GI50: SF-268; for CC50: SF-268, read-out: LC50
# SK-MEL-5 = experiment: NCI growth inhibition and cytotoxicity screen, Melanoma panel; conditions: Homo sapiens; for GI50: SK-MEL-5; for CC50: SK-MEL-5, read-out: LC50
# ACHN = experiment: NCI growth inhibition and cytotoxicity screen, Renal Cancer panel; conditions: Homo sapiens; for CC50: read-out: LC50
# UACC-257 = experiment: NCI growth inhibition and cytotoxicity screen, Melanoma panel; conditions: Homo sapiens; for CC50: UACC-257, read-out: LC50
# OVCAR-5 = experiment: NCI growth inhibition and cytotoxicity screen, Ovarian Cancer panel; conditions: Homo sapiens; for GI50: OVCAR-5; for CC50: OVCAR-5, read-out: LC50
# NCI-H322M = experiment: NCI growth inhibition and cytotoxicity screen, Lung Cancer panel; conditions: Homo sapiens; for CC50: read-out: LC50
# CAKI-1 = experiment: NCI growth inhibition and cytotoxicity screen, Renal Cancer panel; conditions: Homo sapiens; for GI50: CAKI-1; for CC50: CAKI-1, read-out: LC50
# MDA-MB-435 = experiment: NCI growth inhibition and cytotoxicity screen, Melanoma panel; conditions: Homo sapiens; for GI50: MDA-MB-435; for CC50: MDA-MB-435, read-out: LC50
# RXF 393 = experiment: NCI growth inhibition and cytotoxicity screen, Renal Cancer panel; conditions: Homo sapiens; for GI50: RXF 393; for CC50: RXF 393, read-out: LC50
# A498 = experiment: as above; conditions: Homo sapiens; for GI50: A498; for CC50: A498, read-out: LC50
# U251 = experiment: NCI growth inhibition and cytotoxicity screen, CNS Cancer panel; conditions: Homo sapiens; for GI50: U-251; for CC50: U-251, read-out: LC50
# UACC-62 = experiment: NCI growth inhibition and cytotoxicity screen, Melanoma panel; conditions: Homo sapiens; for GI50: UACC-62; for CC50: UACC-62, read-out: LC50
# HCT-15 = experiment: NCI growth inhibition and cytotoxicity screen, Colon Cancer panel; conditions: Homo sapiens; for GI50: HCT-15; for CC50: HCT-15, read-out: LC50
# NCI-H460 = experiment: NCI growth inhibition and cytotoxicity screen, Lung Cancer panel; conditions: Homo sapiens; for GI50: NCI-H460; for CC50: NCI-H460, read-out: LC50
# K-562 = experiment: NCI growth inhibition and cytotoxicity screen, Leukemia panel; conditions: Homo sapiens; for GI50: K562; for CC50: K562, read-out: LC50
# OVCAR-8 = experiment: NCI growth inhibition and cytotoxicity screen, Ovarian Cancer panel; conditions: Homo sapiens; for GI50: OVCAR-8; for CC50: OVCAR-8, read-out: LC50
# DU-145 = experiment: NCI growth inhibition and cytotoxicity screen, Prostate Cancer panel; conditions: Homo sapiens; for GI50: DU-145; for CC50: DU-145, read-out: LC50
# SK-MEL-2 = experiment: NCI growth inhibition and cytotoxicity screen, Melanoma panel; conditions: Homo sapiens; for GI50: SK-MEL-2; for CC50: SK-MEL-2, read-out: LC50
# OVCAR-4 = experiment: NCI growth inhibition and cytotoxicity screen, Ovarian Cancer panel; conditions: Homo sapiens; for GI50: OVCAR-4; for CC50: OVCAR-4, read-out: LC50
# MCF7 = experiment: NCI growth inhibition and cytotoxicity screen, Breast Cancer panel; conditions: Homo sapiens; for GI50: MCF7; for CC50: MCF7, read-out: LC50
# MDA-MB-468 = experiment: cells; conditions: Homo sapiens; for GI50: MDA-MB-468; for CC50: MDA-MB-468, read-out: LC50
# TK-10 = experiment: NCI growth inhibition and cytotoxicity screen, Renal Cancer panel; conditions: Homo sapiens; for GI50: TK-10; for CC50: TK-10, read-out: LC50
# SR = experiment: NCI growth inhibition and cytotoxicity screen, Leukemia panel; conditions: Homo sapiens
# MALME-3M = experiment: NCI growth inhibition and cytotoxicity screen, Melanoma panel; conditions: Homo sapiens; for CC50: read-out: LC50
# HT29 = experiment: NCI growth inhibition and cytotoxicity screen, Colon Cancer panel; conditions: Homo sapiens; for GI50: HT-29; for CC50: HT-29, read-out: LC50
# SF-295 = experiment: NCI growth inhibition and cytotoxicity screen, CNS Cancer panel; type: cell-based; conditions: Homo sapiens, Table 2, cell line SF-295 (CNS Cancer)
# [1] = tested on: full panel of 60 different cancer cell lines; experiment: NCI five dose screen, full panel summary; type: cell-based, human; conditions: for GI50: Homo sapiens
structure (smiles),measurement,setting,value
COc1cc(/C(C#N)=C\c2cc3ccccc3s2)cc(OC)c1OC [Formula (I)(a)],GI50,MDA-MB-231/ATCC,< 10 nM
same,CC50,MDA-MB-231/ATCC,> 100000 nM
same,GI50,SF-268,< 10 nM
same,CC50,SF-268,> 100000 nM
same,GI50,SK-MEL-5,< 10 nM
same,CC50,SK-MEL-5,> 100000 nM
same,GI50,ACHN,< 10 nM
same,CC50,ACHN,> 100000 nM
same,GI50,UACC-257; UACC-257,< 10 nM
same,CC50,UACC-257,> 100000 nM
same,GI50,OVCAR-5,< 10 nM
same,CC50,OVCAR-5,> 100000 nM
same,GI50,NCI-H322M,18.3 nM
same,CC50,NCI-H322M,> 100000 nM
same,GI50,CAKI-1,37.8 nM
same,CC50,CAKI-1,> 100000 nM
same,GI50,MDA-MB-435,< 10 nM
same,CC50,MDA-MB-435,> 100000 nM
same,GI50,RXF 393,< 10 nM
same,CC50,RXF 393,> 100000 nM
same,GI50,A498,< 10 nM
same,CC50,A498,> 100000 nM
same,GI50,U251,< 10 nM
same,CC50,U251,> 100000 nM
same,GI50,UACC-62,< 10 nM
same,CC50,UACC-62,> 100000 nM
same,GI50,HCT-15,< 10 nM
same,CC50,HCT-15,> 100000 nM
same,GI50,NCI-H460,< 10 nM
same,CC50,NCI-H460,> 100000 nM
same,GI50,K-562,< 10 nM
same,CC50,K-562,> 100000 nM
same,GI50,OVCAR-8,< 10 nM
same,CC50,OVCAR-8,> 100000 nM
same,GI50,DU-145,< 10 nM
same,CC50,DU-145,> 100000 nM
same,GI50,SK-MEL-2,< 10 nM
same,CC50,SK-MEL-2,> 100000 nM
same,GI50,OVCAR-4,< 10 nM
same,CC50,OVCAR-4,> 100000 nM
same,GI50,MCF7,< 10 nM
same,CC50,MCF7,> 100000 nM
same,GI50,MDA-MB-468,< 10 nM
same,CC50,MDA-MB-468,> 100000 nM
same,GI50,TK-10,< 10 nM
same,CC50,TK-10,> 100000 nM
same,GI50,SR,< 10 nM
same,CC50,SR; read-out: LC50,> 100000 nM
same,GI50,MALME-3M,< 10 nM
same,CC50,MALME-3M,> 100000 nM
same,GI50,HT29,< 10 nM
same,CC50,HT29,> 100000 nM
"COc1cc(OC)cc(/C(C#N)=C/c2ccc3ccccc3n2)c1 [PNR-4-84, (Z)-2-(3,5-dimethoxyphenyl)-3-(quinolin-2-yl)acrylonitrile]",GI50,MDA-MB-231/ATCC,1020 nM
same,CC50,MDA-MB-231/ATCC,> 100000 nM
same,GI50,SF-268,476 nM
same,CC50,SF-268,> 100000 nM
same,GI50,SK-MEL-5,406 nM
same,CC50,SK-MEL-5,> 100000 nM
same,GI50,ACHN,773 nM
same,CC50,ACHN,> 100000 nM
same,CC50,UACC-257,> 100000 nM
same,GI50,OVCAR-5,716 nM
same,CC50,OVCAR-5,42800 nM
same,GI50,NCI-H322M,3020 nM
same,CC50,NCI-H322M,> 100000 nM
same,GI50,CAKI-1,318 nM
same,CC50,CAKI-1,> 100000 nM
same,GI50,MDA-MB-435,147 nM
same,CC50,MDA-MB-435,> 100000 nM
same,GI50,RXF 393,334 nM
same,CC50,RXF 393,> 100000 nM
same,GI50,A498,275 nM
same,CC50,A498,> 100000 nM
same,GI50,U251,425 nM
same,CC50,U251,> 100000 nM
same,GI50,UACC-62,449 nM
same,CC50,UACC-62,> 100000 nM
same,GI50,SF-295,341 nM
same,CC50,SF-295; read-out: LC50 (the source's name),> 100000 nM
same,GI50,"[1]; range over the potently inhibited cell lines, read-out: GI50 ranging (potently inhibited cancer cell lines)",94 to 983 nM
same,GI50,[1]; read-out: average GI50 value on all the cancer cell lines,490 nM
same,potent growth inhibition on % of the cancer cell lines,[1]; share of the cancer cell lines potently inhibited,86%
same,GI50,HCT-15,409 nM
same,CC50,HCT-15,> 100000 nM
same,GI50,NCI-H460,339 nM
same,CC50,NCI-H460,> 100000 nM
same,GI50,K-562,353 nM
same,CC50,K-562,> 100000 nM
same,GI50,OVCAR-8,659 nM
same,CC50,OVCAR-8,> 100000 nM
same,GI50,DU-145,801 nM
same,CC50,DU-145,> 100000 nM
same,GI50,SK-MEL-2,522 nM
same,CC50,SK-MEL-2,> 100000 nM
same,GI50,OVCAR-4,788 nM
same,CC50,OVCAR-4,> 100000 nM
same,GI50,MCF7,537 nM
same,CC50,MCF7,> 100000 nM
same,GI50,MDA-MB-468,1500 nM
same,CC50,MDA-MB-468,> 100000 nM
same,GI50,TK-10,3280 nM
same,CC50,TK-10,> 100000 nM
same,GI50,MALME-3M,348 nM
same,CC50,MALME-3M,> 100000 nM
same,GI50,HT29,367 nM
same,CC50,HT29,> 100000 nM
